Source: patent publication US20230398334A1, “COATED BALLOON CATHETER FOR TREATING ARTERIOVENOUS FISTULA AND METHODS OF USING SAME” (Alucent Biomedical, Inc., priority 2022, published 2023)

Test system: arteriovenous fistula (AVF)
Test: Treatment of an AVF with the active agent (NVS treatment)
Assay type: in vivo

## NCCOCCOCCNc1ccc2c3c(cccc13)C(=O)N(CCOCCOCCN1C(=O)c3cccc4c(NCCOCCOCCN)ccc(c34)C1=O)C2=O [Compound of Formula (I), 2,2′-((ethane-1,2-diylbis(oxy))bis(ethane-2,1-diyl))bis(6-((2-(2-(2-aminoethoxy)ethoxy)ethyl)amino)-1H-benzo[de]isoquinoline-1,3(2H)-dione)]
  AVF open lumen area: significant increase
  area of neointimal hyperplasia: without significantly affecting
